Measured values published in patent EP3797781A1, “USE OF EC-7072 AND SYNERGIC COMPOSITIONS THEREOF IN TREATMENT OF CHRONIC LYMPHOCYTIC LEUKEMIA” (priority 2019, dated 2021).

System: CD79A, CD79B and IgM
Experiment: Surface expression of BCR complex components on leukemia cells by flow cytometry
Assay type: cell-based, human
Conditions: 200 nM, 8 hours; n = 5 - 6
Source text: To determine immune cell populations, the following antibodies were employed: anti-CD19-APC, anti-CD3-APC, anti-CD4-PerCP and anti-CD8-APC (all from Immunostep); anti-CD3-FITC and anti-CD56-APC (Cytognos); and anti-CD3-PE/Cy7 and anti-CD5-APC/Cy7 (Biolegend). The subsets of immune cells were identified as follows: T cells were defined as CD3^+CD56^-, NK cells were identified as CD3^-CD56^+ and healthy B cells as CD19^+. Leukemia cells were defined as CD19^+, as the percentage of healthy B cells (CD19^+CD5^-) detected in PBMCs from patients with CLL was less than 2% (data not shown). Additionally, antibodies from Biolegend were used to detect surface expression of CD79A (clone: HM47), CD79B (clone: CB3-1) and IgM (clone: MHM-88). Cells were analyzed in a BD FACS Canto II flow cytometer with FACS Diva software (Beckton Dickinson).
The inhibition of the tonic BCR pathway by EC-7072 was evaluated by: • (i) incubating PBMCs from patients with CLL, following treatment with 200 nM EC-7072, for 8 hours. Surface expression of CD79A (Figure 7A), CD79B (Figure 7B) and IgM (Figure 7C) in leukemia cells (n = 5 - 6) was assessed by flow cytometry and the MFI was normalized to the control (DMSO) condition; • (ii) incubating isolated leukemia cells from patients with CLL (n = 10), following treatment with EC-7072 (200 nM), for 8 hours. […]

Q: Which results are given for `CO[C@@H]([C@@H]1Cc2cc3cc(O[C@H]4C[C@@H](O[C@H]5C[C@@H](O)[C@H](O)[C@@H](C)O5)[C@H](O)[C@@H](C)O4)c(C)c(O)c3c(O)c2C(=O)[C@H]1O[C@H]1C[C@@H](O[C@H]2C[C@@H](O[C@H]3C[C@](C)(O)[C@H](O)[C@@H](C)O3)[C@@H](O)[C@@H](C)O2)[C@H](O)[C@@H](C)O1)[C@@H](O)C(C)=O` [EC-7072, mithramycin SK]?
A: CD79A CLL cell surface expression: unchanged; CD79B and IgM CLL cell surface expression: significantly decreased
